These results are taken from US20090044291A1, “DROUGHT-RESISTANT PLANTS AND METHOD FOR PRODUCING THE PLANTS” (D-Helix, priority 2006, published 2009).

Entries after “also recorded” stand apart in the source; their conditions may differ.

Experiment [1] has as its system gl1 seedlings. Briefly: Effects of ABA in vivo on chlorophyll, porphyrins and ABAR/CHLH protein. Also on record: species or system Arabidopsis thaliana. Particulars: exogenous ABA treatment, 10 d. The procedure: The contents of chlorophyll, protoporphyrin IX and Mg-protoporphyrin IX were assayed essentially by the previously described procedures (Mochizuki, N. et al., Proc. Natl. Acad. Sci. USA 98:2053-2058 (2001)).
For the effects of ABA in vivo, the seeds of the ecotype gl1 were germinated after stratification on common MS medium and 48 h later transferred to MS medium supplemented with different concentrations of ABA. 10 d later, the contents of chlorophyll and porphyrins including of protoporphyrin IX and Mg-protoporphyrin IX were measured. At the same time total proteins were extracted from leaves for testing the amounts of ABAR/CHLH protein by immunoblotting.

Experiment [2] deals with C-terminal portion of the broad bean ABAR or CHLH. Briefly: ABA binding to yeast-expressed C-terminal fragment of broad bean ABAR. Details: species or system Vicia faba. The note with it: data not shown. From the text: So we designated it ABAR (for putative abscisic acid receptor). On the basis of the sequencing information, we isolated from broad bean leaves a complementary DNA fragment encoding the carboxy-terminal half of about 770 amino acids of the putative H subunit (CHLH) of the magnesium-protoporphyrin-IX chelatase (Mg-chelatase). CHLH has been reported to have multiple functions in plant cells. In addition to its enzymatic functions as a subunit of the Mg-chelatase in producing photosynthetic apparatus (Walker, C. J. et al., Biochem. J. 327:321-333 (1997)), CHLH has a key function in mediating plastid-to-nucleus signaling (Mochizuki, N. et al., Proc. Natl. Acad. Sci. USA 98:2053-2058 (2001); Surpin, M., et al., Plant Cell S327-S338 (2002); Strand, A., et al., Nature 421:79-83 (2003); Nott, A. et al., Annu. Rev. Plant Biol. 57:730-759 (2006)). […] The information from Vicia faba led us to analyse the functions of ABAR in ABA signalling in Arabidopsis thaliana.

As for `CC1=CC(=O)CC(C)(C)C1(O)/C=C/C(C)=C\C(=O)O` (centres unmarked) [ABA, abscisic acid], in experiment [1], the MgProto contents result was “enhances”, the Proto contents result is on record as “significantly decreased; also recorded: decreases” and the chlorophyll contents result is listed as “significantly decreased; also recorded: decreases”. In addition, the “ABAR expression (protein levels)” value in experiment [1] (immunoblotting) was “stimulated; also recorded: enhances”. Also, the ABA binding result in experiment [2] was “binds ABA specifically”.
